{"source": "paper PMC8018465", "about": "“Antimicrobial activities of a small molecule compound II-6s against oral streptococci” (Journal of Oral Microbiology, 2021)", "origin": "cited, not measured here", "system": "methicillin-resistant Staphylococcus aureus (MRSA)", "parameters": "method as in PMID 30940910", "conditions": "cited from earlier work"}
{"smiles": "CC(C)(Cc1ccc2ccccc2c1)NC[C@@H](O)COc1cccc(Cl)c1C#N", "note": "[NPS-2143, reference compound]", "values": [{"measurement": "antimicrobial activity against MRSA", "result": "bacteriostatic activity"}]}
